Assay results reported in publication PMC10386076, “Discovery of RC-752, a Novel Sigma-1 Receptor Antagonist with Antinociceptive Activity: A Promising Tool for Fighting Neuropathic Pain” (Pharmaceuticals, 2023).
Read-outs that look alike come from different tables or passages of the source.

Legend:
[1] = biological target: T1, S1R (Cavia porcellus, UniProt Q60492); assay: S1R radioligand displacement binding assay ([3H]-(+)-pentazocine); parameters: species or system guinea pig; settings: for Selectivity (Ki S2R/Ki S1R): ratio Ki S2R/Ki S1R
T1 construct: tissue Harlan-Winkelmann, Borchen, Germany; host or cells: guinea pig brain membrane homogenate
Experimental: (R/S)-1a–3e were first evaluated for their binding affinity toward the S1R and S2R in a radioligand displacement assay. […] Nonspecific binding was determined using non-radiolabeled (+)-pentazocine and haloperidol in excess. All the binding experiments were carried out in duplicate. […] Haloperidol was used as a control compound in both assays.
Five guinea pig brains were homogenized with the potter (500–800 rpm, 10 up and down strokes) in 6 volumes of cold 0.32 M sucrose. The suspension was centrifuged at 1200× g for 10 min at 4 °C. […] This procedure was repeated twice. The final pellet was resuspended in 56 volumes of buffer and frozen ([…]) in 1.5 mL portions containing about 1.5 mg protein/mL.
The test compound solutions were prepared by dissolving approximately 10 µmol (usually 2–4 mg) of test compound in dimethyl sulfoxide (DMSO, unless otherwise specified), so that a 10 mM stock solution was obtained. To obtain the required test solutions for the assay, the DMSO stock solution was diluted with the respective assay buffer. The filtermats were presoaked in 0.5% aqueous polyethylenamine solution for 2 h at r.t. before use. All the binding experiments were carried out in duplicate in 96-well multiplates. The concentrations given are the final concentrations in the assay. […] The receptor preparation was always added last. During the incubation, the multiplates were shaken at a speed of 500–600 rpm at the specified temperature. […] During the filtration each well was washed five times with 300 µL of water. Subsequently, the filtermats were dried at 95 °C. The solid scintillator was melted on the dried filtermats at 95 °C for 5 min. After the solidifying of the scintillator at r.t., the trapped radioactivity in the filtermats was measured with the scintillation analyzer. Each position on the filtermat corresponding to one well of the multiplate was measured for 5 min with the [^3H]-counting protocol. The overall counting efficiency was 20%. The IC50 values were calculated with GraphPad Prism 3.0 (GraphPad Software, San Diego, CA, USA) by nonlinear regression analysis. The IC50 values were subsequently transformed into Ki values using the equation of Cheng and Prusoff. All the experiments were carried out in duplicates. Compounds with high S1R affinity were tested in three independent experiments, and their Ki values are given as mean value ± SEM from the three measurements. […] (22.0 Ci/mmol; Perkin-Elmer). […] The nonspecific binding was determined with 10 µM unlabeled (+)-pentazocine.

[2] = In vitro metabolic stability in mouse plasma; format: in vitro ADME; settings: after 240 min of incubation
Experimental: (§1) The in vitro metabolic stability of compound (R/S)-1d was evaluated in mouse plasma and hepatic microsomes.

[3] = In vitro metabolic stability in mouse liver microsomes; format: in vitro ADME; settings: oxidative conditions
Experimental: as §1
Mouse liver microsomes (Sigma Aldrich, CD-1 male, pooled) at 0.5 mg/mL were preincubated with the test compound (R/S)-1d dissolved in DMSO at 1 μM in phosphate buffer 50 mM, pH 7.4, and 3 mM MgCl2 for 10 min at 37 °C [75]. The reaction was then started by adding the cofactor mixture solution (NADP, glucose-6-phosphate, glucose-6-phosphate dehydrogenase in 2% NaHCO3). The samples were taken at 0, 10, 30, 45, and 60 min and added to acetonitrile to stop the reaction (n = 3). The samples were then centrifuged, and the supernatant was analyzed by LC-MS/MS to quantify the amount of compound. A control sample without cofactor was always added to check the chemical stability of the test compound. Two reference compounds of known metabolic stability, 7-ethoxycoumarin (7-EC) and propranolol, were present in parallel testing. A fixed concentration of verapamil was added to every sample as an internal standard for LC-MS/MS analyses. The percentage of the area of the test compound remaining at the various incubation times was calculated with respect to the area of the compound at time 0 min.
The intrinsic clearance (Cli) was calculated by the equation: Cli (μL/min/mg) = k/microsomal conc. × 1000 where k is the rate constant (min^−1) and the microsomal protein conc. = 0.5 mg protein/mL. The rate constant k (min^−1), derived for the exponential decay equation (peak area/IS vs. time), was used to calculate the rate of Cli.
The samples were analyzed under the following conditions: UFLC LC-20 Shimadzu coupled with an API 3200 triple-quadrupole (ABSciex); eluents, (phase A) water + 0.1% trifluoroacetic acid (TFA), (phase B) CH3CN + 0.1% TFA; flow rate, 0.3 mL/min; column, Gemini-Nx 5 μm C18 110A (50 × 2.00 mm) at 35 °C; and injection volume, 5 μL. LC–MS/MS analyses were carried out using an ESI(+) interface in a multiple reaction monitoring mode (MRM). The conditions and MRM transitions applied to the compounds are described in Table 3. […]

[4] = system: mice; assay: Formalin-induced licking paw test; format: in vivo; settings: Mus musculus
Experimental: This is a model of persistent pain in which the nociceptive response produced by formalin is quantified by measuring the time spent by the mouse licking the injected paw. The intraplantar administration of formalin (2%, 20 μL) produces a biphasic nocifensive behavioral response (i.e., biting or licking the injected hind paw). The acute nociceptive phase, reflecting the chemical activation of sensory C-fibers, lasts for the first 5 min, while the second inflammatory phase takes place between 20 and 30 min and corresponds with the development of nociceptive sensitization in the dorsal horn of the spinal cord.
ICR male mice weighing 20–25 g (5 weeks old) and SD rats weighing 200–250 g (7 weeks old) were used in the experiments. […]
The formalin-induced licking paw test was modified from the method described by Dubuisson and Dennis [79]. […] Each mouse was then placed in an individual clear plastic observational chamber (15 × 15 × 15), and the pain response was recorded for a period of 30 min. The summation of time (in seconds) spent in licking and biting responses of the injected paw during each 5 min block was measured as an indicator of the pain response. The first period (early phase) was recorded 0–5 min after the injection of formalin, and the second period (late phase) was recorded 20–30 min after the injection. […] The data were expressed as mean values (SEM). […]

[5] = system: rats; assay: Chung's neuropathic pain model (spinal nerve ligation), von Frey mechanical allodynia; format: in vivo, rat
Excerpt: This procedure involves the surgical binding or tying off of the left L5 and L6 spinal nerves in rats and causes long-lasting behavioral signs of mechanical allodynia and ongoing pain. Mechanical allodynia refers to the perception of pain caused by normally non-painful stimuli, such as touch or pressure. […] Mechanical stimulation was then induced using von Frey filaments, a set of calibrated nylon fibers that are used to apply mechanical pressure to the skin or other tissues to measure pain sensitivity. The mechanical threshold for pain was established with the “up and down method”.
ICR male mice weighing 20–25 g (5 weeks old) and SD rats weighing 200–250 g (7 weeks old) were used in the experiments. All the animals were purchased from SAMTACO (Osan-si, Korea). Six mice/group and eight rats/group were used for this study. Four groups of mice were utilized for the assessment of the antinociceptive activity in the formalin test (one vehicle and three doses; 1, 10, and 20 mg/kg given i.p.), while five groups of rats were used for the assessment of the antinociceptive activity in Chung’s neuropathic pain model (one vehicle and four doses; 5, 10, 25 and 50 mg/kg given i.p.). The ICR mice and SD rats were maintained on a 12 hr light–dark cycle (light on between 7:00 p.m. and 7:00 a.m.) and allowed free access to food and water. The temperature and humidity of the animal room were maintained at 22 ± 2 °C and 50 ± 5%, respectively. In this study, we followed the national guidelines for conducting animal experiments. […] All efforts were made to minimize animal suffering and reduce the number of animals used.
Ligation of the left L5 and L6 spinal nerves in the rats was used as an experimental model of neuropathic pain. […] The surgical procedure was performed according to the method described by Kim and Chung [80]. The left L5 spinal nerve was isolated and ligated tightly with 6–0 black silk. The wound was closed in anatomical layers, with the skin being closed with stainless steel wound clips. The animals were then allowed to recover after the surgery. The behavioral signs representing neuropathic pain (mechanical allodynia) were examined in all the rats for 2 weeks postoperatively. The mechanical withdrawal threshold to the application of a von Frey filament (Stoelting, Wood Dale, IL, USA) was measured by using the up–down method [81].The most sensitive area was first determined by poking various areas of the paw with a von Frey hair. Next, the actual test was conducted by gently poking various areas of the spot with the filament. […] The frequency of foot withdrawal expressed as a percentage was used as the index of mechanical allodynia. […] The results were calculated using the one-way analysis of variance (ANOVA) followed by Bonferroni’s post hoc test. […]

T1 sequence (Q60492 whole entry): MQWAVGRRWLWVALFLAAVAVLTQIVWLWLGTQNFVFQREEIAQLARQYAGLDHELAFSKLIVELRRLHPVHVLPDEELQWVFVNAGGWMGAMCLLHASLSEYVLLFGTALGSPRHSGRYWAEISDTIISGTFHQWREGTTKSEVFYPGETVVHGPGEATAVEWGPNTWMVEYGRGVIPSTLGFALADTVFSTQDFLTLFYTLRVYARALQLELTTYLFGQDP

## CN(CCC(CO)c1ccc(-c2ccccc2)cc1)Cc1ccccc1 (stereo not shown) [Compound 1c, 3-([1,1’-biphenyl]-4-yl)-N-benzyl-4-hydroxy-N-methylbutanamine]
[1]
  Ki: 0.95 ± 0.08 nM
  Selectivity (Ki S2R/Ki S1R): 127

## OCC(CCN1CCCCC1)c1ccc(-c2ccccc2)cc1 (stereo not shown) [Compound 1d, 2-([1,1’-biphenyl]-4-yl)-4-(piperidin-1-yl)butan-1-ol]
[2]
  compound remaining unaltered: approximately 100%
[3]; male, CD-1, liver microsomes (pooled), pH 7.4, mouse hepatic microsomes 0.5 mg/mL, 1 μM
  half-life at 1 μM: 7.2 ± 0.3 min
[3]; mouse hepatic microsomes 0.5 mg/mL, 1 μM
  Cli: 192 ± 7 µL/min/mg
[3]; mouse hepatic microsomes
  in vitro clearance classification: high clearance
[4]; read-out: ED50, first phase of the formalin test
  ED50: 13 mg/kg
[4]; mice, i.p. 1, 10, 20 mg/Kg 30 min before formalin, 20–30 min, paw licking time, read-out: ED50, second phase of the formalin test
  ED50: 2.17 mg/kg
[5]; i.p. 50 mg/Kg
  time the antinociceptive effect was extended: up to 90 min
[5]; i.p. 5 and 10 mg/Kg
  antinociceptive effect (mechanical allodynia): No significative effect
[5]; i.p. 25 and 50 mg/Kg
  time the antinociceptive effect was sustained: up to 60 min
[5]; i.p. 25 and 50 mg/Kg, 30 min after administration
  antinociceptive effect (mechanical allodynia): restore the normal nociceptive functionality
[1]
  Selectivity (Ki S2R/Ki S1R): 58
